In the supplement of paper PMC10307832:

Tests used:
Experiment in all cases: relative viability (nuclei count vs DMSO), 5 days (fraction); higher = more cells survive
BEN = tested on: BEN
Summary of the method: (§1)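 After 5 days of treatment, lung cancer cells in 1536-well plates were fixed and stained in a single step (final 0.05% Triton X-100, 1% formaldehyde, 1 ug/ml Hoechst) and their nuclei counted on 4× images. Treatment had been applied by pin tool the day after seeding as one drug alone or as a fixed anchor-drug dose with five library-drug doses (not always all listed) in √10 steps. Relative viability is the nuclei count of treated wells divided by that of vehicle wells, and values are medians of duplicate plates.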

CAL-12T = tested on: CAL-12T
Summary of the method: as §1

COR-L23 = tested on: COR-L23
Summary of the method: as §1

HCC-44 = tested on: HCC-44
Summary of the method: as §1

LU99A = tested on: LU99A
Summary of the method: as §1

LXF-289 = tested on: LXF-289
Summary of the method: as §1

NCI-H1355 = tested on: NCI-H1355
Summary of the method: as §1

NCI-H1437 = tested on: NCI-H1437
Summary of the method: as §1

NCI-H1650 = tested on: NCI-H1650
Summary of the method: as §1

NCI-H1651 = tested on: NCI-H1651
Summary of the method: as §1

NCI-H1666 = tested on: NCI-H1666
Summary of the method: as §1

NCI-H1755 = tested on: NCI-H1755
Summary of the method: as §1

NCI-H1993 = tested on: NCI-H1993
Summary of the method: as §1

NCI-H2085 = tested on: NCI-H2085
Summary of the method: as §1

NCI-H2087 = tested on: NCI-H2087
Summary of the method: as §1

NCI-H2170 = tested on: NCI-H2170
Summary of the method: as §1

NCI-H460 = tested on: NCI-H460
Summary of the method: as §1

NCI-H520 = tested on: NCI-H520
Summary of the method: as §1

PC-14 = tested on: PC-14
Summary of the method: as §1

SK-MES-1 = tested on: SK-MES-1
Summary of the method: as §1

## CN1CCN(CCOc2cc(OC3CCOCC3)c3c(Nc4c(Cl)ccc5c4OCO5)ncnc3c2)CC1 [Saracatinib] + Cc1cc(Nc2cc(N3CCN(C)CC3)nc(Sc3ccc(NC(=O)C4CC4)cc3)n2)n[nH]1 [Tozasertib] (partner 0.1 µM)
BEN; first compound 0.02 µM
  relative viability: 0.518
BEN; first compound 0.2 µM
  relative viability: 0.477
BEN; first compound 0.6325 µM
  relative viability: 0.458
BEN; first compound 2 µM
  relative viability: 0.419
CAL-12T; first compound 0.02 µM
  relative viability: 0.361
CAL-12T; first compound 0.2 µM
  relative viability: 0.387
CAL-12T; first compound 0.6325 µM
  relative viability: 0.283
CAL-12T; first compound 2 µM
  relative viability: 0.194
COR-L23; first compound 0.02 µM
  relative viability: 0.185
COR-L23; first compound 0.2 µM
  relative viability: 0.207
COR-L23; first compound 0.6325 µM
  relative viability: 0.155
COR-L23; first compound 2 µM
  relative viability: 0.174
HCC-44; first compound 0.02 µM
  relative viability: 0.967
HCC-44; first compound 0.2 µM
  relative viability: 0.891
HCC-44; first compound 0.6325 µM
  relative viability: 1.48
HCC-44; first compound 2 µM
  relative viability: 1.05
LU99A; first compound 0.02 µM
  relative viability: 0.26
LU99A; first compound 0.2 µM
  relative viability: 0.249
LU99A; first compound 0.6325 µM
  relative viability: 0.226
LU99A; first compound 2 µM
  relative viability: 0.217
LXF-289; first compound 0.02 µM
  relative viability: 0.205
LXF-289; first compound 0.2 µM
  relative viability: 0.183
LXF-289; first compound 0.6325 µM
  relative viability: 0.164
LXF-289; first compound 2 µM
  relative viability: 0.0819
NCI-H1355; first compound 0.02 µM
  relative viability: 0.532
NCI-H1355; first compound 0.2 µM
  relative viability: 0.317
NCI-H1355; first compound 0.6325 µM
  relative viability: 0.454
NCI-H1355; first compound 2 µM
  relative viability: 0.36
NCI-H1437; first compound 0.02 µM
  relative viability: 0.431
NCI-H1437; first compound 0.2 µM
  relative viability: 0.31
NCI-H1437; first compound 0.6325 µM
  relative viability: 0.407
NCI-H1437; first compound 2 µM
  relative viability: 0.344
NCI-H1650; first compound 0.02 µM
  relative viability: 0.435
NCI-H1650; first compound 0.2 µM
  relative viability: 0.294
NCI-H1650; first compound 0.6325 µM
  relative viability: 0.22
NCI-H1650; first compound 2 µM
  relative viability: 0.204
NCI-H1651; first compound 0.02 µM
  relative viability: 0.71
NCI-H1651; first compound 0.2 µM
  relative viability: 0.555
NCI-H1651; first compound 0.6325 µM
  relative viability: 0.691
NCI-H1651; first compound 2 µM
  relative viability: 0.625
NCI-H1666; first compound 0.02 µM
  relative viability: 0.648
NCI-H1666; first compound 0.2 µM
  relative viability: 0.607
NCI-H1666; first compound 0.6325 µM
  relative viability: 0.66
NCI-H1666; first compound 2 µM
  relative viability: 0.625
NCI-H1755; first compound 0.02 µM
  relative viability: 0.526
NCI-H1755; first compound 0.2 µM
  relative viability: 0.528
NCI-H1755; first compound 0.6325 µM
  relative viability: 0.644
NCI-H1755; first compound 2 µM
  relative viability: 0.459
NCI-H1993; first compound 0.02 µM
  relative viability: 0.6
NCI-H1993; first compound 0.2 µM
  relative viability: 0.559
NCI-H1993; first compound 0.6325 µM
  relative viability: 0.569
NCI-H1993; first compound 2 µM
  relative viability: 0.576
NCI-H2085; first compound 0.02 µM
  relative viability: 0.816
NCI-H2085; first compound 0.2 µM
  relative viability: 0.676
NCI-H2085; first compound 0.6325 µM
  relative viability: 0.722
NCI-H2085; first compound 2 µM
  relative viability: 0.707
NCI-H2087; first compound 0.02 µM
  relative viability: 0.224
NCI-H2087; first compound 0.2 µM
  relative viability: 0.206
NCI-H2087; first compound 0.6325 µM
  relative viability: 0.258
NCI-H2087; first compound 2 µM
  relative viability: 0.231
NCI-H2170; first compound 0.02 µM
  relative viability: 0.736
NCI-H2170; first compound 0.2 µM
  relative viability: 0.371
NCI-H2170; first compound 0.6325 µM
  relative viability: 0.723
NCI-H2170; first compound 2 µM
  relative viability: 0.429
NCI-H460; first compound 0.02 µM
  relative viability: 0.407
NCI-H460; first compound 0.2 µM
  relative viability: 0.397
NCI-H460; first compound 0.6325 µM
  relative viability: 0.433
NCI-H460; first compound 2 µM
  relative viability: 0.279
NCI-H520; first compound 0.02 µM
  relative viability: 0.407
NCI-H520; first compound 0.6325 µM
  relative viability: 0.383
NCI-H520; first compound 2 µM
  relative viability: 0.314
PC-14; first compound 0.02 µM
  relative viability: 0.603
PC-14; first compound 0.2 µM
  relative viability: 0.514
PC-14; first compound 0.6325 µM
  relative viability: 0.475
PC-14; first compound 2 µM
  relative viability: 0.209
SK-MES-1; first compound 0.02 µM
  relative viability: 0.868
SK-MES-1; first compound 0.2 µM
  relative viability: 0.836
SK-MES-1; first compound 0.6325 µM
  relative viability: 0.872
SK-MES-1; first compound 2 µM
  relative viability: 0.666

## CN1CCN(CCOc2cc(OC3CCOCC3)c3c(Nc4c(Cl)ccc5c4OCO5)ncnc3c2)CC1 [Saracatinib] + O=C(CCCCCCC(=O)Nc1ccccc1)NO [Vorinostat] (partner 1 µM)
BEN; first compound 0.02 µM
  relative viability: 0.54
BEN; first compound 0.2 µM
  relative viability: 0.57
BEN; first compound 0.6325 µM
  relative viability: 0.54
BEN; first compound 2 µM
  relative viability: 0.576
CAL-12T; first compound 0.02 µM
  relative viability: 0.804
CAL-12T; first compound 0.2 µM
  relative viability: 0.764
CAL-12T; first compound 0.6325 µM
  relative viability: 0.91
CAL-12T; first compound 2 µM
  relative viability: 0.696
COR-L23; first compound 0.02 µM
  relative viability: 0.361
COR-L23; first compound 0.2 µM
  relative viability: 0.41
COR-L23; first compound 0.6325 µM
  relative viability: 0.469
COR-L23; first compound 2 µM
  relative viability: 0.406
HCC-44; first compound 0.02 µM
  relative viability: 1.14
HCC-44; first compound 0.2 µM
  relative viability: 1.14
HCC-44; first compound 0.6325 µM
  relative viability: 1
HCC-44; first compound 2 µM
  relative viability: 1.19
LU99A; first compound 0.02 µM
  relative viability: 0.445
LU99A; first compound 0.2 µM
  relative viability: 0.339
LU99A; first compound 0.6325 µM
  relative viability: 0.418
LU99A; first compound 2 µM
  relative viability: 0.404
LXF-289; first compound 0.02 µM
  relative viability: 0.78
LXF-289; first compound 0.2 µM
  relative viability: 0.573
LXF-289; first compound 0.6325 µM
  relative viability: 0.773
LXF-289; first compound 2 µM
  relative viability: 0.715
NCI-H1355; first compound 0.02 µM
  relative viability: 0.668
NCI-H1355; first compound 0.2 µM
  relative viability: 0.62
NCI-H1355; first compound 0.6325 µM
  relative viability: 0.7
NCI-H1355; first compound 2 µM
  relative viability: 0.587
NCI-H1437; first compound 0.02 µM
  relative viability: 1.05
NCI-H1437; first compound 0.2 µM
  relative viability: 0.995
NCI-H1437; first compound 0.6325 µM
  relative viability: 1.14
NCI-H1437; first compound 2 µM
  relative viability: 1.17
NCI-H1650; first compound 0.02 µM
  relative viability: 0.654
NCI-H1650; first compound 0.2 µM
  relative viability: 0.377
NCI-H1650; first compound 0.6325 µM
  relative viability: 0.548
NCI-H1650; first compound 2 µM
  relative viability: 0.492
NCI-H1651; first compound 0.02 µM
  relative viability: 0.598
NCI-H1651; first compound 0.2 µM
  relative viability: 0.547
NCI-H1651; first compound 0.6325 µM
  relative viability: 0.598
NCI-H1651; first compound 2 µM
  relative viability: 0.554
NCI-H1666; first compound 0.02 µM
  relative viability: 0.988
NCI-H1666; first compound 0.2 µM
  relative viability: 0.914
NCI-H1666; first compound 0.6325 µM
  relative viability: 1.12
NCI-H1666; first compound 2 µM
  relative viability: 1.2
NCI-H1755; first compound 0.02 µM
  relative viability: 0.687
NCI-H1755; first compound 0.2 µM
  relative viability: 0.539
NCI-H1755; first compound 0.6325 µM
  relative viability: 0.861
NCI-H1755; first compound 2 µM
  relative viability: 0.707
NCI-H1993; first compound 0.02 µM
  relative viability: 0.806
NCI-H1993; first compound 0.2 µM
  relative viability: 0.651
NCI-H1993; first compound 0.6325 µM
  relative viability: 0.874
NCI-H1993; first compound 2 µM
  relative viability: 0.533
NCI-H2085; first compound 0.02 µM
  relative viability: 0.816
NCI-H2085; first compound 0.2 µM
  relative viability: 0.694
NCI-H2085; first compound 0.6325 µM
  relative viability: 0.896
NCI-H2085; first compound 2 µM
  relative viability: 0.815
NCI-H2087; first compound 0.02 µM
  relative viability: 0.696
NCI-H2087; first compound 0.2 µM
  relative viability: 0.564
NCI-H2087; first compound 0.6325 µM
  relative viability: 0.54
NCI-H2087; first compound 2 µM
  relative viability: 0.95
NCI-H2170; first compound 0.02 µM
  relative viability: 0.746
NCI-H2170; first compound 0.2 µM
  relative viability: 0.678
NCI-H2170; first compound 0.6325 µM
  relative viability: 0.93
NCI-H2170; first compound 2 µM
  relative viability: 0.571
NCI-H460; first compound 0.02 µM
  relative viability: 0.735
NCI-H460; first compound 0.2 µM
  relative viability: 0.591
NCI-H460; first compound 0.6325 µM
  relative viability: 0.677
NCI-H460; first compound 2 µM
  relative viability: 0.604
NCI-H520; first compound 0.02 µM
  relative viability: 0.652
NCI-H520; first compound 0.2 µM
  relative viability: 0.471
NCI-H520; first compound 0.6325 µM
  relative viability: 0.598
NCI-H520; first compound 2 µM
  relative viability: 0.477
PC-14; first compound 0.02 µM
  relative viability: 0.759
PC-14; first compound 0.2 µM
  relative viability: 0.247
PC-14; first compound 0.6325 µM
  relative viability: 0.163
PC-14; first compound 2 µM
  relative viability: 0.0854
SK-MES-1; first compound 0.02 µM
  relative viability: 1.17
SK-MES-1; first compound 0.2 µM
  relative viability: 1.05
SK-MES-1; first compound 0.6325 µM
  relative viability: 1.17
SK-MES-1; first compound 2 µM
  relative viability: 0.83
